Data: the supplement of paper PMC5844555

What was measured:
Experiment in all cases: 3' UTR reporter interaction score (median-centred robust z-score of log2 firefly/Renilla activity); higher = less repression of the 3' UTR reporter
Conditions in all cases: HEK293T; 48 h
[1] = tested on: BRCA2
In short: (§1)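 In at least two independent screens, HEK293T cells in 96-well plates (10,000/well) were co-transfected with DharmaFECT Duo using 100 ng firefly luc2P reporter with the gene's 3' UTR, 20 ng Renilla pRL-TK control and 2.5 pmol miRNA mimic, and dual-luciferase activities were read at 48 h. The interaction score, averaged across screens, is the per-plate robust z-score (median, median absolute deviation) of the log firefly/Renilla ratio, median-centred per miRNA, with more negative indicating interaction.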

[2] = tested on: EZH2
In short: as §1

[3] = tested on: FBXW7
In short: as §1

[4] = tested on: HRAS
In short: as §1

[5] = tested on: MYB
In short: as §1

[6] = tested on: MYCN
In short: as §1

[7] = tested on: MYC
In short: as §1

[8] = tested on: MYT1L
In short: as §1

[9] = tested on: NOTCH1
In short: as §1

[10] = tested on: PHF6
In short: as §1

[11] = tested on: PHOX2B
In short: as §1

[12] = tested on: RB1
In short: as §1

[13] = tested on: TP53
In short: as §1

[14] = tested on: ZEB2
In short: as §1

Row | Sequence | 3' UTR reporter interaction score [1] | 3' UTR reporter interaction score [2] | 3' UTR reporter interaction score [3] | 3' UTR reporter interaction score [4] | 3' UTR reporter interaction score [5] | 3' UTR reporter interaction score [6] | 3' UTR reporter interaction score [7] | 3' UTR reporter interaction score [8] | 3' UTR reporter interaction score [9] | 3' UTR reporter interaction score [10] | 3' UTR reporter interaction score [11] | 3' UTR reporter interaction score [12] | 3' UTR reporter interaction score [13] | 3' UTR reporter interaction score [14]
1 | AGGUUGACAUACGUUUCCC | -0.754 | -0.54 | -0.16 | -1.43 | 0.862 | -0.377 | -0.726 | 0.798 | 1.09 | 0.251 | 0.494 | 0.54 | -0.178 | 1.11
2 | AGUAUGUUCUUCCAGGACAGAAC | -2.15 | 0.482 | 0.574 | 0.113 | 0.712 | -0.169 | 0.576 | -0.575 | -0.607 | -0.447 | -1.01 | 0.243 | 0.258 | 0.181
3 | AGUAUUCUGUACCAGGGAAGGU | 0.623 | -2.56 | 1.75 | -0.0345 | -0.25 | 0.786 | 0.255 | -1.07 | 0.758 | -1.2 | 0.0656 | -0.386 | 0.107 | -1.77
4 | AGUGACAUCACAUAUACGGCAGC | -1.13 | -0.788 | -1.31 | -0.649 | 0.233 | 0.321 | -0.366 | 0.969 | 0.273 | 0.28 | 0.805 | 0.945 | -0.15 | 1.55
5 | AGUGGGGAACCCUUCCAUGAGGA | 0.0202 | -0.974 | 0.423 | 0.144 | 0.186 | 0.0621 | -0.465 | -1.79 | -0.0192 | 0.14 | -0.69 | 0.472 | -3.21 | 1.02
6 | AGUGGUUUUACCCUAUGGUAG | -2.62 | 0.908 | -0.0104 | -0.669 | 2.26 | 0.551 | 0.603 | 1.52 | -0.395 | 1.32 | 1.56 | 1.79 | -3.34 | -0.644
7 | AGUGUGGCUUUCUUAGAGC | -3.13 | -0.421 | 1.11 | 0.377 | 0.805 | 0.47 | -0.501 | -0.23 | -0.152 | -0.715 | 1.11 | -0.335 | -0.0434 | 0.748
8 | AGUUAAUGAAUCCUGGAAAGU | -0.407 | -0.175 | 0.0665 | -0.441 | 0.47 | 0.0474 | 0.0217 | -0.25 | -0.406 | -0.54 | -0.662 | -0.487 | -0.194 | 0.251
9 | AUAAGACGAGCAAAAAGCUUGU | 2.27 | 1.23 | 0.133 | 0.557 | -1.19 | -0.0307 | -0.771 | 0.212 | -0.743 | -0.375 | -0.501 | -1.39 | 0.501 | -2.58
10 | AUAAUACAUGGUUAACCUCUUU | -0.764 | 0 | -0.808 | -0.143 | 1.01 | 1.04 | 0.024 | 0.598 | 0.871 | -0.737 | -0.62 | -0.631 | -0.592 | -2.7
11 | AUCAACAGACAUUAAUUGGGCGC | 1.26 | 1.19 | 1.67 | 1.56 | 0.0314 | -0.34 | -1.29 | -0.0651 | -1.2 | -1.06 | -0.111 | 1.49 | -1.55 | 1.91
12 | AUCACACAAAGGCAACUUUUGU | -0.664 | -1.06 | -0.0452 | -0.777 | 0.989 | 0.776 | 0.0727 | 0.734 | 0.929 | -0.33 | 0.549 | 0.566 | -0.723 | -0.747
13 | AUCACAUUGCCAGGGAUUUCC | -1.67 | 0.281 | 0.0652 | -0.452 | -0.3 | 0.592 | -0.00223 | 0.197 | -0.492 | 0.394 | -0.216 | 0.826 | -1.29 | 2.06
14 | AUCAGCAAACAUUUAUUGUGUG | 0.0901 | -1.04 | -0.701 | -1.06 | 1.62 | -0.181 | -0.19 | -0.934 | 0.157 | 1.01 | 1.35 | 1.07 | 0.16 | 1.25
15 | AUCAUAGAGGAAAAUCCACGU | 0.121 | 0.733 | 0.0331 | -1.11 | -0.185 | 0.335 | -0.578 | 0.0345 | 0.241 | 0.424 | 0.628 | -0.168 | 0.405 | -0.144
16 | AUCAUAGAGGAAAAUCCAUGUU | -0.0049 | 0.791 | -0.575 | -0.664 | 0.366 | 0.0452 | -0.229 | -0.0506 | 1.28 | -0.0407 | 0.462 | 0.00936 | 0.636 | -1.1
17 | AUCAUGAUGGGCUCCUCGGUGU | -0.103 | -0.332 | -2.53 | 0.527 | 0.47 | -1.14 | -1.04 | 1.53 | -2.44 | 0.0291 | -0.574 | 0.226 | 0.202 | 0.672
18 | AUCCCUUGCAGGGGCUGUUGGGU | -0.445 | 0.197 | -1.6 | -0.0656 | 0.681 | 0.104 | 0.108 | 0.613 | 0.359 | -0.0289 | -1.62 | -0.201 | -0.855 | 1.78
19 | AUCCUUGCUAUCUGGGUGCUA | -0.448 | -0.755 | 0.895 | -3.26 | 0.799 | 1.2 | 0.118 | 0.363 | 0.113 | -1.61 | -0.723 | -2.46 | 0.763 | -0.105
